Results: US9067923B2, “Substituted quinoxalines” (Kyowa Hakko Kirin Co., Ltd., priority 2011, dated 2015)

Tested on: production of kynurenine in human gastric cancer cell line KATO-III
Test: Inhibitory activity on the production of kynurenine (IFN-γ-treated KATO-III cells)
Format: cell-based
Conditions: 10 μmol/L test compound, KATO-III cells treated with IFN-γ, 96 hours
Protocol: This assay was performed by a modification of the method described in J. Biol. Chem., vol. 263, pp. 2041-2048 ([…]). For culture of the human gastric cancer cell line […], RPMI 1640 (GIBCO, 11875) supplemented with 10 vol % FBS (GIBCO, 10091-148, lot. 665285) was used. One μL of a test substance in a DMSO solution was diluted with 199 μL of the culture medium and placed in wells of a 384-well plate (10 μL/well). Next, IFN-γ (Sigma, I-3265) was added to a fresh culture medium to a concentration of 31.25 ng/mL, and KATO-III cells were suspended at 50,000 cells/mL in the culture medium. Forty μL of the suspension was added to each well (2,000 cells/well) and cultured under 5% CO2 at 37° C. for 96 hours. The final concentration of DMSO was limited to 0.1 vol % or less so that DMSO itself may not affect the kynurenine concentration measured in this assay. After the culture, 10 μL of a 30 w/v % aqueous trichloroacetic acid solution was added to each well, and incubation was performed at 65° C. for 30 minutes. The plate was centrifruged at 2,500×g for 5 minutes and 15 μL of the supernatant in each well was transferred into another 384-well plate. To the transferred supernatant, 15 μL of a 2 w/v % solution of p-dimethylaminobenzaldehyde in acetic acid was added, incubation was performed at 65° C. for 20 minutes and the absorbance was measured at 480 nm.
Sample: the absorbance value of the well to which DMSO solution containing a test substance was added and in which the cells were treated with IFN-γ.
Blank: the absorbance value of the well to which DMSO not containing a test substance was added and in which the cells were treated with IFN-γ.
Control: the absorbance value of the well to which DMSO not containing a test substance was added and in which the cells were not treated with IFN-γ.
The inhibition % of each test compound was calculated by formula A1.
In this assay, the expression of IDO in KATO-III cells is induced by IFN-γ treatment, and kynurenine in the culture medium is quantified. The kynurenine concentration in a culture medium is known to increase in proportion to the enzymatic activity of intracellular IDO (for example, J. Biol. Chem., vol. 263, pp. 2041-2048 (1988)). […] The production of kynurenine is known to be inhibited by IDO inhibitors (for example, J. Clin. Invest., vol. 117, No. 5, pp. 1147-1154 ([…])), and thus it is speculated that compounds (I) also have an inhibitory effect on IDO.

SMILES: CCCS(=O)(=O)Nc1nc2ccccc2nc1OC(C1CCN(c2ccnc(C#N)c2)CC1)C(F)(F)F (centres unmarked) [Compound 16, N-(3-(1-(1-(2-cyanopyridin-4-yl)piperidin-4-yl)-2,2,2-trifluoroethoxy)quinoxalin-2-yl)propane-1-sulfonamide]
- inhibition at 10 µM: ≥ 80%

SMILES: CCCS(=O)(=O)Nc1nc2ccccc2nc1OC(C1CCN(c2ccc(C(N)=O)cn2)CC1)C(F)(F)F (centres unmarked) [Compound 19, 6-(4-(2,2,2-trifluoro-1-(3-(propylsulfonamido)quinoxalin-2-yloxy)ethyl)piperidin-1-yl)nicotinamide]
- inhibition at 10 µM: ≥ 80%

SMILES: CCCS(=O)(=O)Nc1nc2ccccc2nc1OC(C1CCN(c2nnnn2C)CC1)C(F)(F)F (centres unmarked) [Compound 12, N-(3-(2,2,2-trifluoro-1-(1-(1-methyl-1H-tetrazol-5-yl)piperidin-4-yl)ethoxy)quinoxalin-2-yl)propane-1-sulfonamide]
- inhibition at 10 µM: ≥ 80%

SMILES: CCCS(=O)(=O)Nc1nc2ccccc2nc1OC(C1CCN(c2ccc(C(=O)N(C)C)cn2)CC1)C(F)(F)F (centres unmarked) [Compound 8, N,N-dimethyl-6-(4-(2,2,2-trifluoro-1-(3-(propylsulfonamido)quinoxalin-2-yloxy)ethyl)piperidin-1-yl)nicotinamide]
- inhibition at 10 µM: ≥ 80%

SMILES: CCCS(=O)(=O)Nc1nc2ccccc2nc1OC(C1CCN(c2cc(C(=O)N(C)C)ccn2)CC1)C(F)(F)F (centres unmarked) [Compound 1, N,N-dimethyl-2-(4-(2,2,2-trifluoro-1-(3-(propylsulfonamido)quinoxalin-2-yloxy)ethyl)piperidin-1-yl)isonicotinamide]
- inhibition at 10 µM: ≥ 80%

SMILES: CCCS(=O)(=O)Nc1nc2ccccc2nc1OC(C1CCN(c2cncnc2)CC1)C(F)(F)F (centres unmarked) [Compound 14, N-(3-(2,2,2-trifluoro-1-(1-(pyrimidin-5-yl)piperidin-4-yl)ethoxy)quinoxalin-2-yl)propane-1-sulfonamide]
- inhibition at 10 µM: ≥ 80%

SMILES: CCCS(=O)(=O)Nc1nc2ccccc2nc1OC(C1CCN(c2cc(C#N)ccn2)CC1)C(F)(F)F (centres unmarked) [Compound 6, N-(3-(1-(1-(4-cyanopyridin-2-yl)piperidin-4-yl)-2,2,2-trifluoroethoxy)quinoxalin-2-yl)propane-1-sulfonamide]
- inhibition at 10 µM: ≥ 80%

SMILES: COCCS(=O)(=O)Nc1nc2ccccc2nc1OC(c1ccc(-c2noc(C3CC3)n2)nc1)C(F)(F)F (centres unmarked) [Compound 23, N-(3-(1-(6-(5-cyclopropyl-1,2,4-oxadiazol-3-yl)pyridin-3-yl)-2,2,2-trifluoroethoxy)quinoxalin-2-yl)-2-methoxyethanesulfonamide]
- inhibition at 10 µM: ≥ 80%

SMILES: CCCS(=O)(=O)Nc1nc2ccccc2nc1OC(C1CCN(c2cncc(C#N)c2)CC1)C(F)(F)F (centres unmarked) [Compound 7, N-(3-(1-(1-(5-cyanopyridin-3-yl)piperidin-4-yl)-2,2,2-trifluoroethoxy)quinoxalin-2-yl)propane-1-sulfonamide]
- inhibition at 10 µM: ≥ 80%

SMILES: CCCS(=O)(=O)Nc1nc2ccccc2nc1O[C@H](C1CCN(c2ccc(C(N)=O)nc2)CC1)C(F)(F)F [Compound 34, (R)-5-(4-(2,2,2-trifluoro-1-(3-(propylsulfonamido)quinoxalin-2-yloxy)ethyl)piperidin-1-yl)picolinamide]
- inhibition at 10 µM: ≥ 80%

SMILES: CCCS(=O)(=O)Nc1nc2ccccc2nc1OC(c1ccc(-c2noc(COC)n2)nc1)C(F)(F)F (centres unmarked) [Compound 26, N-(3-(2,2,2-trifluoro-1-(6-(5-(methoxymethyl)-1,2,4-oxadiazol-3-yl)pyridin-3-yl)ethoxy)quinoxalin-2-yl)propane-1-sulfonamide]
- inhibition at 10 µM: ≥ 80%

SMILES: CCCS(=O)(=O)Nc1nc2ccccc2nc1OC(C1CCN(c2ccncc2C#N)CC1)C(F)(F)F (centres unmarked) [Compound 17, N-(3-(1-(1-(3-cyanopyridin-4-yl)piperidin-4-yl)-2,2,2-trifluoroethoxy)quinoxalin-2-yl)propane-1-sulfonamide]
- inhibition at 10 µM: ≥ 80%

SMILES: CCCS(=O)(=O)Nc1nc2ccccc2nc1OC(C1CCN(c2cccnc2)CC1)C(F)(F)F (centres unmarked) [Compound 21, N-(3-(2,2,2-trifluoro-1-(1-(pyridin-3-yl)piperidin-4-yl)ethoxy)quinoxalin-2-yl)propane-1-sulfonamide]
- inhibition at 10 µM: ≥ 80%

SMILES: CCCS(=O)(=O)Nc1nc2ccccc2nc1OC(C1CCN(c2cccc(C(=O)N(C)C)n2)CC1)C(F)(F)F (centres unmarked) [Compound 3, N,N-dimethyl-6-(4-(2,2,2-trifluoro-1-(3-(propylsulfonamido)quinoxalin-2-yloxy)ethyl)piperidin-1-yl)picolinamide]
- inhibition at 10 µM: ≥ 80%

SMILES: CCCS(=O)(=O)Nc1nc2ccccc2nc1OC(C1CCN(c2ncccc2C#N)CC1)C(F)(F)F (centres unmarked) [Compound 9, N-(3-(1-(1-(3-cyanopyridin-2-yl)piperidin-4-yl)-2,2,2-trifluoroethoxy)quinoxalin-2-yl)propane-1-sulfonamide]
- inhibition at 10 µM: ≥ 80%

SMILES: CCCS(=O)(=O)Nc1nc2ccccc2nc1OC(C1CCN(c2ccc(C#N)cn2)CC1)C(F)(F)F (centres unmarked) [Compound 15, N-(3-(1-(1-(5-cyanopyridin-2-yl)piperidin-4-yl)-2,2,2-trifluoroethoxy)quinoxalin-2-yl)propane-1-sulfonamide]
- inhibition at 10 µM: ≥ 80%

SMILES: CCCS(=O)(=O)Nc1nc2ccccc2nc1OC(C1CCN(c2nccs2)CC1)C(F)(F)F (centres unmarked) [Compound 18, N-(3-(2,2,2-trifluoro-1-(1-(thiazol-2-yl)piperidin-4-yl)ethoxy)quinoxalin-2-yl)propane-1-sulfonamide]
- inhibition at 10 µM: ≥ 80%

SMILES: CCCS(=O)(=O)Nc1nc2ccccc2nc1OC(C1CCN(c2ncccc2C(=O)N(C)C)CC1)C(F)(F)F (centres unmarked) [Compound 2, N,N-dimethyl-2-(4-(2,2,2-trifluoro-1-(3-(propylsulfonamido)quinoxalin-2-yloxy)ethyl)piperidin-1-yl)nicotinamide]
- inhibition at 10 µM: ≥ 80%

SMILES: CCCS(=O)(=O)Nc1nc2ccccc2nc1O[C@H](c1cnc(C(C)=O)s1)C(F)(F)F [Compound 32, (S)-N-(3-(1-(2-acetylthiazol-5-yl)-2,2,2-trifluoroethoxy)quinoxalin-2-yl)propane-1-sulfonamide]
- inhibition at 10 µM: ≥ 80%

SMILES: CCCS(=O)(=O)Nc1nc2ccccc2nc1OC(C1CCN(c2ncccc2C(N)=O)CC1)C(F)(F)F (centres unmarked) [Compound 10, 2-(4-(2,2,2-trifluoro-1-(3-(propylsulfonamido)quinoxalin-2-yloxy)ethyl)piperidin-1-yl)nicotinamide]
- inhibition at 10 µM: ≥ 80%

SMILES: CCCS(=O)(=O)Nc1nc2ccccc2nc1OC(C1CCN(c2ccccn2)CC1)C(F)(F)F (centres unmarked) [Compound 20, N-(3-(2,2,2-trifluoro-1-(1-(pyridin-2-yl)piperidin-4-yl)ethoxy)quinoxalin-2-yl)propane-1-sulfonamide]
- inhibition at 10 µM: ≥ 80%

SMILES: CCCS(=O)(=O)Nc1nc2ccccc2nc1OC(C1CCN(c2ccc(C(N)=O)nc2)CC1)C(F)(F)F (centres unmarked) [Compound 5, 5-(4-(2,2,2-trifluoro-1-(3-(propylsulfonamido)quinoxalin-2-yloxy)ethyl)piperidin-1-yl)picolinamide]
- inhibition at 10 µM: ≥ 80%

SMILES: CCCS(=O)(=O)Nc1nc2ccccc2nc1OC(C1CCN(c2cnccn2)CC1)C(F)(F)F (centres unmarked) [Compound 13, N-(3-(2,2,2-trifluoro-1-(1-(pyrazin-2-yl)piperidin-4-yl)ethoxy)quinoxalin-2-yl)propane-1-sulfonamide]
- inhibition at 10 µM: ≥ 80%
